Test results from patent publication US20200055839A1 (priority 2017, published 2020).

tested on: NL-RLuc virus; assay: Inhibition of HIV replication (NL-RLuc virus, luciferase readout in MT-2 cells); type: cell-based; conditions: Human immunodeficiency virus 1, MT2, 120 h, MT-2 cells infected with NL-RLuc virus, 5 days of incubation, 10% FBS, at least 2 experiments
Procedure, shortened: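 EC50 derived via median effect equation from at least 2 experiments, using luciferase expression as virus-growth readout. Replication-competent NL-RLuc reporter virus (nef partly replaced by Renilla luciferase) infected MT-2 cells with serial compound dilutions; 5-day incubation in RPMI 1640 plus 10% FBS.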

Compound	EC50
Cc1nc(-c2cnc(C)c([C@H](OC(C)(C)C)C(=O)O)c2N2CCC(C)(C)CC2)ccc1OCCc1ccc(F)cc1 [Example 232, (S)-2-(tert-Butoxy)-2-(4′-(4,4-dimethylpiperidin-1-yl)-5-(4-fluorophenethoxy)-6, 6′-dimethyl-[2, 3′-bipyridin]-5′-yl)acetic acid]	6 nM
Cc1ncc(-c2ncc(OCCc3ccc(F)cc3)cc2F)c(N2CCC(C)(C)CC2)c1[C@H](OC(C)(C)C)C(=O)O [Example 233, (S)-2-(tert-Butoxy)-2-(4′-(4,4-dimethylpiperidin-1-yl)-3-fluoro-5-(4-fluorophenethoxy)-6′-methyl-[2, 3′-bipyridin]-5′-yl)acetic acid]	2 nM
Cc1ncc(-c2cnc(OCCc3ccc(Cl)cc3Cl)c(F)c2)c(N2CCC(C)(C)CC2)c1[C@H](OC(C)(C)C)C(=O)O [Example 234, (S)-2-(tert-Butoxy)-2-(6′-(2,4-dichlorophenethoxy)-4-(4,4-dimethylpiperidin-1-yl)-5′-fluoro-6-methyl-[3, 3′-bipyridin]-5-yl)acetic acid]	4 nM
Cc1ncc(-c2ccc(OCCc3ccc(F)cc3)c(Cl)c2)c(N2CCC(C)(C)CC2)c1[C@H](OC(C)(C)C)C(=O)O [Example 235, (S)-2-(tert-Butoxy)-2-(5-(3-chloro-4-(4-fluorophenethoxy)phenyl)-4-(4,4-dimethylpiperidin-1-yl)-2-methylpyridin-3-yl)acetic acid]	2 nM
Cc1ncc(-c2cnc(OCCc3ccccc3Cl)c(F)c2)c(N2CCC(C)(C)CC2)c1[C@H](OC(C)(C)C)C(=O)O [Example 238, (S)-2-(tert-Butoxy)-2-(6′-(2-chlorophenethoxy)-4-(4,4-dimethylpiperidin-1-yl)-5′-fluoro-6-methyl-[3, 3′-bipyridin]-5-yl)acetic acid]	2 nM
Cc1ncc(-c2cnc(OCCc3c(F)cccc3Cl)c(F)c2)c(N2CCC(C)(C)CC2)c1[C@H](OC(C)(C)C)C(=O)O [Example 239, (S)-2-(tert-Butoxy)-2-(6′-(2-chloro-6-fluorophenethoxy)-4-(4,4-dimethylpiperidin-1-yl)-5′-fluoro-6-methyl-[3, 3′-bipyridin]-5-yl)acetic acid]	3 nM
Cc1ncc(-c2cnc(OCCc3ccccc3)c(F)c2)c(N2CCC(C)(C)CC2)c1[C@H](OC(C)(C)C)C(=O)O [Example 240, (S)-2-(tert-Butoxy)-2-(4-(4,4-dimethylpiperidin-1-yl)-5′-fluoro-6-methyl-6′-phenethoxy-[3,3′-bipyridin]-5-yl)acetic acid]	1 nM
Cc1ncc(-c2ccc(OCCc3ccc(F)cc3)c(C(F)(F)F)c2)c(N2CCC(C)(C)CC2)c1[C@H](OC(C)(C)C)C(=O)O [Example 241, (S)-2-(tert-Butoxy)-2-(4-(4,4-dimethylpiperidin-1-yl)-5-(4-(4-fluorophenethoxy)-3-(trifluoromethyl)phenyl)-2-methylpyridin-3-yl)acetic acid]	7 nM
Cc1ncc(-c2cc(C(F)(F)F)c(OCCc3ccc(F)cc3)cn2)c(N2CCC(C)(C)CC2)c1[C@H](OC(C)(C)C)C(=O)O [Example 244, (S)-2-(tert-Butoxy)-2-(4′-(4,4-dimethylpiperidin-1-yl)-5-(4-fluorophenethoxy)-6′-methyl-4-(trifluoromethyl)-[2, 3′-bipyridin]-5′-yl)acetic acid]	3 nM
Cc1nc(-c2cnc(C)c([C@H](OC(C)(C)C)C(=O)O)c2N2CCC(C)(C)CC2)ncc1OCCc1ccc(F)cc1 [Example 245, (S)-2-(tert-Butoxy)-2-(4-(4,4-dimethylpiperidin-1-yl)-5-(5-(4-fluorophenethoxy)-4-methylpyrimidin-2-yl)-2-methylpyridin-3-yl)acetic acid]	2 nM
CCC(C)(C)O[C@H](C(=O)O)c1c(C)ncc(-c2ccc(OCCc3ccc(F)cc3)cn2)c1N1CCC(C)(C)CC1 [Example 246, (S)-2-(4′-(4,4-Dimethylpiperidin-1-yl)-5-(4-fluorophenethoxy)-6′-methyl-[2, 3′-bipyridin]-5′-yl)-2-(tert-pentyloxy)acetic acid]	0.4 nM
CCC(C)(C)O[C@H](C(=O)O)c1c(C)ncc(-c2ncc(OCCc3ccc(F)cc3)cn2)c1N1CCC(C)(C)CC1 [Example 247, (S)-2-(4-(4,4-Dimethylpiperidin-1-yl)-5-(5-(4-fluorophenethoxy)pyrimidin-2-yl)-2-methylpyridin-3-yl)-2-(tert-pentyloxy)acetic acid]	0.8 nM
Cc1cc(-c2cnc(C)c([C@H](OC(C)(C)C)C(=O)O)c2N2CCC(C)(C)CC2)ncc1OCCc1ccc(F)cc1 [Example 248, (S)-2-(tert-Butoxy)-2-(4′-(4,4-dimethylpiperidin-1-yl)-5-(4-fluorophenethoxy)-4, 6′-dimethyl-[2, 3′-bipyridin]-5′-yl)acetic acid]	1 nM
COc1nc(-c2cnc(C)c([C@H](OC(C)(C)C)C(=O)O)c2N2CCC(C)(C)CC2)ccc1OCCc1ccc(F)cc1 [Example 249, (S)-2-(tert-Butoxy)-2-(4′-(4,4-dimethylpiperidin-1-yl)-5-(4-fluorophenethoxy)-6-methoxy-6′-methyl-[2, 3′-bipyridin]-5′-yl)acetic acid]	2 nM
Cc1ncc(-c2cnc(OCCc3ccc(F)cc3)c(Cl)c2)c(N2CCC(C)(C)CC2)c1[C@H](OC(C)(C)C)C(=O)O [Example 250, (S)-2-(tert-Butoxy)-2-(5′-chloro-4-(4,4-dimethylpiperidin-1-yl)-6′-(4-fluorophenethoxy)-6-methyl-[3, 3′-bipyridin]-5-yl)acetic acid]	2 nM
Cc1ncc(-c2cnc(OCCc3cccc(F)c3)c(Cl)c2)c(N2CCC(C)(C)CC2)c1[C@H](OC(C)(C)C)C(=O)O [Example 251, (S)-2-(tert-Butoxy)-2-(5′-chloro-4-(4,4-dimethylpiperidin-1-yl)-6′-(3-fluorophenethoxy)-6-methyl-[3, 3′-bipyridin]-5-yl)acetic acid]	2 nM
Cc1ncc(-c2cnc(OCCc3ccccc3F)c(Cl)c2)c(N2CCC(C)(C)CC2)c1[C@H](OC(C)(C)C)C(=O)O [Example 252, (S)-2-(tert-Butoxy)-2-(5′-chloro-4-(4,4-dimethylpiperidin-1-yl)-6′-(2-fluorophenethoxy)-6-methyl-[3, 3′-bipyridin]-5-yl)acetic acid]	1 nM
Cc1cc(-c2cnc(C)c([C@H](OC(C)(C)C)C(=O)O)c2N2CCC(C)(C)CC2)cnc1OCCc1ccc(F)cc1 [Example 253, (S)-2-(tert-Butoxy)-2-(4-(4,4-dimethylpiperidin-1-yl)-6′-(4-fluorophenethoxy)-5′,6-dimethyl-[3,3′-bipyridin]-5-yl)acetic acid]	1 nM
Cc1ncc(-c2ccc(OCCc3ccc(F)cc3)nc2)c(N2CCC(C)(C)CC2)c1[C@H](OC(C)(C)C)C(=O)O [Example 254, (S)-2-(tert-Butoxy)-2-(4-(4,4-dimethylpiperidin-1-yl)-6′-(4-fluorophenethoxy)-6-methyl-[3,3′-bipyridin]-5-yl)acetic acid]	0.6 nM
Cc1ncc(-c2ccc(OCCc3cccc(F)c3)nc2)c(N2CCC(C)(C)CC2)c1[C@H](OC(C)(C)C)C(=O)O [Example 255, (S)-2-(tert-Butoxy)-2-(4-(4,4-dimethylpiperidin-1-yl)-6′-(3-fluorophenethoxy)-6-methyl-[3,3′-bipyridin]-5-yl)acetic acid]	0.8 nM
Cc1ncc(-c2ccc(OCCc3ccc(F)cc3)c(C#N)c2)c(N2CCC(C)(C)CC2)c1[C@H](OC(C)(C)C)C(=O)O [Example 256, (S)-2-(tert-Butoxy)-2-(5-(3-cyano-4-(4-fluorophenethoxy)phenyl)-4-(4,4-dimethylpiperidin-1-yl)-2-methylpyridin-3-yl)acetic acid]	0.8 nM
Cc1ncc(-c2ccc(OCCc3cccc(F)c3)c(F)c2)c(N2CCC(C)(C)CC2)c1[C@H](OC(C)(C)C)C(=O)O [Example 257, (S)-2-(tert-Butoxy)-2-(4-(4,4-dimethylpiperidin-1-yl)-5-(3-fluoro-4-(3-fluorophenethoxy)phenyl)-2-methylpyridin-3-yl)acetic acid]	1 nM
Cc1ncc(-c2ccc(OCCc3ccccc3)c(F)c2)c(N2CCC(C)(C)CC2)c1[C@H](OC(C)(C)C)C(=O)O [Example 258, (S)-2-(tert-Butoxy)-2-(4-(4,4-dimethylpiperidin-1-yl)-5-(3-fluoro-4-phenethoxyphenyl)-2-methylpyridin-3-yl)acetic acid]	1 nM
Cc1ncc(-c2ccc(OCCc3ccccc3F)cc2)c(N2CCC(C)(C)CC2)c1[C@H](OC(C)(C)C)C(=O)O [Example 259, (S)-2-(tert-Butoxy)-2-(4-(4,4-dimethylpiperidin-1-yl)-5-(4-(2-fluorophenethoxy)phenyl)-2-methylpyridin-3-yl)acetic acid]	1 nM
Cc1nc(OCCc2ccc(F)cc2)ccc1-c1cnc(C)c([C@H](OC(C)(C)C)C(=O)O)c1N1CCC(C)(C)CC1 [Example 260, (S)-2-(tert-Butoxy)-2-(4-(4,4-dimethylpiperidin-1-yl)-6′-(4-fluorophenethoxy)-2′,6-dimethyl-[3, 3′-bipyridin]-5-yl)acetic acid]	11 nM
Cc1nc(OCCc2cccc(F)c2)ccc1-c1cnc(C)c([C@H](OC(C)(C)C)C(=O)O)c1N1CCC(C)(C)CC1 [Example 261, (S)-2-(tert-Butoxy)-2-(4-(4,4-dimethylpiperidin-1-yl)-6′-(3-fluorophenethoxy)-2′,6-dimethyl-[3, 3′-bipyridin]-5-yl)acetic acid]	28 nM
CCC(C)(C)O[C@H](C(=O)O)c1c(C)ncc(-c2ccc(OCCc3ccccc3)cc2)c1N1CCC(C)(C)CC1 [Example 264, (S)-2-(4-(4,4-Dimethylpiperidin-1-yl)-2-methyl-5-(4-phenethoxyphenyl)pyridin-3-yl)-2-(tert-pentyloxy)acetic acid]	3 nM
Cc1ncc(-c2ccc(OCCc3ccccc3)cc2)c(N2CCC(C)(C)CC2)c1[C@H](OC(C)(C)C)C(=O)O [Example 265, (S)-2-(tert-Butoxy)-2-(4-(4,4-dimethylpiperidin-1-yl)-2-methyl-5-(4-phenethoxyphenyl)pyridin-3-yl)acetic acid]	1 nM
